According to patent US7205302B2, “Heterocyclic compound derivatives and medicines” (Nippon Shinyaku Co., Ltd., priority 2001, dated 2007):
Counter-ions that a name gives are not always drawn.

Legend:
[1] = system: ADP-induced platelet aggregation in human PRP; assay: Human platelet aggregation inhibition test; type: cell-based; details: ADP 1×10^−5 M
Experimental: Human Platelet Aggregation Inhibition Test
Blood collected from healthy human volunteers into aqueous trisodium citrate solution was centrifuged at 200×g for 10 minutes and the upper layer was recovered to obtain platelet-rich plasma (PRP). The residual blood containing trisodium citrate added therein was centrifuged at 1500×g for 10 minutes and the supernatant was collected as platelet-poor plasma (PPP). The number of platelets in the PRP was adjusted to about 300,000/μl by PPP. Platelet aggregation was measured by an aggregometer. 180 μl of PRP was added to cuvettes and incubated at 37° C. for one minute, and then 10 μl of test compound solution (prepared by dissolving a test compound with a 1.5-fold mole of a sodium hydroxide solution and diluting with water) was added and the mixture was further incubated for 2 minutes. Then, 10 μl of aqueous adenosine diphosphate (ADP) solution was added to adjust the final concentration as 1×10^−5 M and platelet aggregation was induced and observed for 7 minutes. Inhibition percentage of aggregation was calculated from the percentage of aggregation upon the addition of the test compound to the percentage of aggregation upon the addition of water in place of the test compound solution (control).

[2] = target: T1, PGI2 receptor (human platelet membrane, 3H-Iloprost binding) (Homo sapiens, UniProt P43119); assay: 3H-Iloprost binding inhibition test to human platelet membrane; details: compound 1 μM, 5 nM 3H-Iloprost, 37° C., 10 minutes
T1 construct: Human platelet membrane of 100 μg protein was suspended; from tissue; host or cells: human platelet membrane
Experimental: ^3H-Iloprost Binding Inhibition Test to Human Platelet Membrane
The platelet membrane was collected on a glass filter and its radioactivity was measured after washing four times with 50 mM Tris-HCl buffer.

mice = assay: Single-dose toxicity test in mice; type: in vivo; details: oral, 10, 30 or 100 mg/kg
Experimental: Singl-Dose Toxicity Test in Mice
The compound of Example 42 was orally administered to mice (including three mice in a group) at a dose of 10, 30 or 100 mg/kg.

T1 sequence (P43119 whole entry): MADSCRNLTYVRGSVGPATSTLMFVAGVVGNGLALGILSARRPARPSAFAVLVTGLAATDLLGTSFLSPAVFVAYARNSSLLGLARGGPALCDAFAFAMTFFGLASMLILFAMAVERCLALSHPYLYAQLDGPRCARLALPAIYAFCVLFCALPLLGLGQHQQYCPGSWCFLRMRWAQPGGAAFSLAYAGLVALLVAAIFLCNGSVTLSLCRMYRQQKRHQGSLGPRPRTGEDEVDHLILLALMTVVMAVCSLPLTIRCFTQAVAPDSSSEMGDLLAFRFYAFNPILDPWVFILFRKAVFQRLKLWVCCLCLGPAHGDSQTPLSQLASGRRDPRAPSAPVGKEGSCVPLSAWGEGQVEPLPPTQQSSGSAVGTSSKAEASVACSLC

Row | SMILES | IC50 [1] [nM] | melting point [°C] | inhibition of binding of 3H-Iloprost [2] [%] | deaths after single oral dose (mice)
1 | Cc1ccc(-c2nnc(N(CCCCOCC(=O)O)C(C)C)nc2-c2ccc(C)cc2)cc1 [Example 48, 2-{4-[N-(5,6-di-p-tolyl-1,2,4-triazin-3-yl)-N-isopropylamino]butyloxy}acetic acid] | 400 | 119 to 121 |  | 
2 | CN(CCCCOCC(=O)O)c1c[n+]([O-])c(-c2ccccc2)c(-c2ccccc2)n1 [Example 73, 2,3-diphenyl-5-{N-[4-(carboxymethoxy)butyl]-N-methylamino}pyrazine 1-oxide] | 200 | 185 to 190 |  | 
3 | CN(CCCCOCC(=O)O)c1cnc(-c2ccccc2)c(-c2ccccc2)n1 [Example 64, 2-{4-[N-(5,6-diphenylpyrazin-2-yl)-N-methylamino]butyloxy}acetic acid] |  |  | 85 | 
4 | CN(CCCCOCC(=O)O)c1ncc(-c2ccccc2)c(-c2ccccc2)n1 [Example 74, 2-{4-[N-(4,5-diphenylpyrimidin-2-yl)-N-methylamino]butyloxy}acetic acid] | 800 |  |  | 
5 | CC(C)N(CCCCSCC(=O)O)c1cnc(-c2ccccc2)c(-c2ccccc2)n1 [Example 78, 2-{4-[N-(5,6-diphenylpyrazin-2-yl)-N-isopropylamino]butylthio]acetic acid sodium salt] | 300 |  |  | 
6 | CC(C)N(CCCCOCC(=O)O)c1cnc(-c2ccccc2)c(-c2ccccc2)n1 [Example 42, 2-{4-[N-(5,6-diphenylpyrazin-2-yl)-N-isopropylamino]butyloxy}acetic acid] | 200 |  |  | no deaths
